Three molecules from patent US6930123B2, “sPLA2 inhibitors” (Eli Lilly and Company, priority 2000, dated 2005) can be followed below.

Each structure is given as a SMILES string.

Data set [1] concerns the target T1, recombinant human secreted phospholipase A2 (Homo sapiens, UniProt P14555).
T1 sequence (P14555 21-144): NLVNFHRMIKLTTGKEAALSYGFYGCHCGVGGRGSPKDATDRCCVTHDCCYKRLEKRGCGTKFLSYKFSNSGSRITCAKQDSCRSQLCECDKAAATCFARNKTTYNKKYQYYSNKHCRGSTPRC
Nature of the data set: chromogenic assay for inhibitors of recombinant human secreted phospholipase A2. The data set is classed as biochemical. The note with it: diheptanoyl thio-PC substrate, pH 7.5, 40° C. for 30 minutes, absorbance at 405 nanometers, titrated in triplicate. The source says:
The following chromogenic assay procedure was used to identify and evaluate inhibitors of recombinant human secreted phospholipase A2. The assay described herein has been adapted for high volume screening using 96 well microtiter plates. A general description of this assay method is found in the article, “Analysis of Human Synovial Fluid Phospholipase A2 on Short Chain Phosphatidylcholine-Mixed Micelles: Development of a Spectrophotometric Assay Suitable for a Microtiterplate Reader”, by Laure J. Reynolds, Lori L. Hughes, and Edward A Dennis, Analytical Biochemistry, 204, pp. 190-197, 1992 (the disclosure of which is incorporated herein by reference):
A measured volume of racemic dipheptanoyl thio PC supplied in chloroform at a concentration of 100 mg/ml is taken to dryness and redissolved in 10 millimolar TRITON X-100™ nonionic detergent aqueous solution. Reaction Buffer is added to the solution, then DTNB to give the Reaction Mixture.
The reaction mixture thus obtained contains 1 mM diheptanoly thio-PC substrate, 0.29 mm Triton X-100™ detergent, and 0.12 mm DTMB in a buffered aqueous solution at pH 7.5.
• 1. Add 0.2 ml reaction mixture to all wells; • 2. Add 10 ul test compound (or solvent blank) to appropriate wells, mix 20 seconds; • 3. Add 50 nanograms of sPLA2 (10 microliters) to appropriate wells; • 4. Incubate plate at 40° C. for 30 minutes; • 5. Read absorbance of wells at 405 nanometers with an automatic plate reader.
Tests were done in triplicate. Typically, compounds were tested at a final concentration of 5 ug/ml. […] Lack of color development at 405 nanometers evidenced inhibition. Compounds initially found to be active were re-assayed to confirm their activity and, if sufficiently active, IC50 values were determined. […] In all cases, % inhibition measured at 405 nanometers generated by enzyme reactions containing inhibitors relative to the uninhibited control reactions was determined. […] IC50 values were determined by plotting log concentration versus inhibition values in the range from 10-90% inhibition.

For orientation: IC50 means the concentration needed to halve the response being measured. Take `CCOC(=O)COc1c2ccccc2cc2c1c(C(=O)C(N)=O)c(CC)n2Cc1ccccc1` [Example 1, 2-[[3-(2-amino-1,2-dioxoethyl)-1-benzyl-2-ethyl-1H-benz[f]indol-4-yl]oxy]acetic acid ethyl ester]: the IC50 in data set [1] was 1.3 µM.
One may read the melting point as the temperature of the solid-liquid transition. Turning to `CCc1c(C(=O)C(N)=O)c2c(OCC(=O)O)c3ccccc3cc2n1Cc1ccccc1` [Example 3, 2-[[3-(2-amino-1,2-dioxoethyl)-1-benzyl-2-ethyl-1H-benz[f]indol-4-yl]oxy]acetic acid], the melting point is 243 to 253 °C (dec.). In addition, in data set [1], the IC50 came to 1.06 µM.
As to `CCc1c(C(=O)C(N)=O)c2c(OCC(=O)OCc3ccccc3)c3ccccc3cc2n1Cc1ccccc1` [Example 2, 2-[[3-(2-amino-1,2-dioxoethyl)-1-benzyl-2-ethyl-1H-benz[f]indol-4-yl]oxy]acetic acid benzyl ester], the IC50 in data set [1] was 14.3 µM.
